Laboratory results: ChEMBL document CHEMBL1800015, “Cytotoxic steroidal alkaloids from Kibatalia laurifolia” (J Nat Prod, 2011)

system: KB; experiment: Cytotoxicity against human KB cells after 72 hrs by neutral red based colorimetry assay; assay type: functional, cell-based

Compound | IC50 [µM]
C[C@@H]1OC(=O)[C@]23CC[C@H]4[C@@H](CC=C5C[C@@H](N)CC[C@@]54C)[C@@H]2CC[C@H]13 | 21.2
CN[C@H]1CC[C@@]2(C)C(=C[C@@H](O)[C@H]3[C@@H]4CC[C@@H]5[C@H](C)OC(=O)[C@@]54CC[C@@H]32)C1 | > 50
CN[C@@H]1CC[C@@]2(C)C(=CC[C@H]3[C@@H]4CC[C@@H]5[C@H](C)OC(=O)[C@@]54CC[C@@H]32)C1 | 21
CC(=O)N[C@@H]1CC[C@@]2(C)C(=CC[C@H]3[C@@H]4CC[C@@H]5[C@H](C)OC(=O)[C@@]54CC[C@@H]32)C1 | > 50
C[C@@H]1OC(=O)[C@]23CC[C@H]4[C@@H](CC=C5C[C@H](N)CC[C@@]54C)[C@@H]2CC[C@H]13 [GITINGENSINE] | 21
C[C@@H]1OC(=O)[C@]23CC[C@H]4[C@@H](C(=O)C=C5C=CCC[C@@]54C)[C@@H]2CC[C@H]13 [KIBALAURIFENONE] | 21
CC(=O)N(C)[C@H]1C=C2C=C[C@H]3[C@@H]4CC[C@@H]5[C@H](C)OC(=O)[C@@]54CC[C@@H]3[C@@]2(C)CC1 [KIBALAURIFOLINE] | 21
CN[C@H]1CC[C@@]2(C)C(=CC[C@H]3[C@@H]4CC[C@@H]5[C@H](C)OC(=O)[C@@]54CC[C@@H]32)C1 [PARAVALLARINE] | 12.8
